Results: article PMC9415731, “Evaluation of PepT1 (SLC15A1) Substrate Characteristics of Therapeutic Cyclic Peptides” (Pharmaceutics, 2022)
Where two headings read alike, the source gives them in different places. Numbered stars: 1 amine (or outer) side, 2 acyl side, 3 side chain; on linkers, the order of the positions; unused ones are H or OH. Square brackets hold non-standard residues; d marks the D form. Side chains are listed from the residue outwards. Peptide text beside a SMILES is read from it. * marks the point of attachment. Ethylenediamine = C(CN[*:2])N[*:1]; Hyp = O=C(O)[C@@H]1C[C@@H](O)CN1; Phg = N[C@H](C(=O)O)c1ccccc1; CO = O=C([*:1])[*:2]; Bn = c1ccc(C*)cc1

What was measured:
hPepT1 (SLC15A1) [1] = biological target: T1, hPepT1 (SLC15A1) (Homo sapiens, UniProt P46059); test: Inhibition of Gly-Sar uptake in hPepT1 overexpressing CHO-K1 clones (semi-high-throughput 96-well assay); format: cell-based
T1 construct: host or cells: CHO-K1 (clones CHO-hPepT1-M5 and CHO-hPepT1-200)
T1 sequence (P46059 1-708): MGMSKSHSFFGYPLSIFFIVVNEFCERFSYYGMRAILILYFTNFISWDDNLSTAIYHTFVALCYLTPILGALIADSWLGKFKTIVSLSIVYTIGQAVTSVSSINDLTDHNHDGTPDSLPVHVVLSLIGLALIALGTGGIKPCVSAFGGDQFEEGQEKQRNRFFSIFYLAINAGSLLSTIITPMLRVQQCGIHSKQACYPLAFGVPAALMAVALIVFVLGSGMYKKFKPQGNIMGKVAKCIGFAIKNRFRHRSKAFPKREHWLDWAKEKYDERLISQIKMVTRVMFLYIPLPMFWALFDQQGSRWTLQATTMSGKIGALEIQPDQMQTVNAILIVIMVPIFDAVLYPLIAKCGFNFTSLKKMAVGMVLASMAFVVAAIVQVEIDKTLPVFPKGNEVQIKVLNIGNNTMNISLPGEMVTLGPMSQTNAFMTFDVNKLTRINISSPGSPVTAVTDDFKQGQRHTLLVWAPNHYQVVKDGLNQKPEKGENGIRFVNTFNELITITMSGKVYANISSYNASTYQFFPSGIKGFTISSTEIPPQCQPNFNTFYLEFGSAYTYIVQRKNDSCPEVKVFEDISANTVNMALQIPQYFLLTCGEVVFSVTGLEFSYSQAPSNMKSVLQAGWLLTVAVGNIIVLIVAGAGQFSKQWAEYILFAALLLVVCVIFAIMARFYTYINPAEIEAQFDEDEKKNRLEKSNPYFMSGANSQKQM
Procedure: In a second step, inhibition of hPepT1 by losartan, one of the strongest inhibitors of this transporter, was tested in both clones. Inhibition experiments were conducted as previously described at a Gly-Sar concentration of 20 µM [13]. In brief, cells were seeded in 96-well plates 1 d before the assay at a concentration of 5 × 10^4 per well. On the day of the inhibition experiment, cells were washed once with MES buffer (100 µL/well) and subsequently incubated with 20 µM Gly-Sar and losartan (0.1–5000 µM), all prepared in MES buffer. After an incubation period of 10 min at 37 °C on a rotary shaker (450 rpm), transport was terminated by removing the solution and washing the cells with ice-cold MES buffer thrice while the plate was kept on ice. Afterwards, cells were lysed in the 96-well cell culture plate with aqueous NH4OH (10%, 50 µL/well), and sample preparation was performed as described previously. Inhibition in the clone CHO-hPepT1-M5 was also tested with Gly-Pro (0.1–5000 µM) as described for losartan.
The cyclic peptides were first evaluated for hPepT1 inhibition with the semi-high-throughput assay in 96-well plates established and validated earlier, but using CHO-hPepT1-M5 instead of Caco-2 cells. Cells were seeded 2 d before the assay at a concentration of 5 × 10^4/well, and the assay was conducted as published previously. Each concentration was tested in octuplet, and each experiment performed thrice.
(§1) Nonlinear regression curves were calculated with GraphPad Prism version 9.3.1 (GraphPad Software Inc., La Jolla, CA, USA) using the four-parameter fit (sigmoidal dose-response curves with variable slope) for inhibition experiments of a one-phase association nonlinear curve fit for the Gly-Sar uptake. […] A p-value < 0.05 was considered significant.

hPepT1 (SLC15A1) [2] = biological target: T1, hPepT1 (SLC15A1); test: Uptake of cyclic peptides in CHO-hPepT1-M5 cells compared with parental CHO-K1 cells, with and without Gly-Pro; format: cell-based; details: for hPepT1 substrate characteristics (conclusion): uptake in CHO-hPepT1-M5 vs CHO-K1 cells, with and without Gly-Pro
Procedure: For investigating the possible hPepT1 substrate characteristics of the cyclic peptides, their uptake was measured in the CHO-hPepT1-M5 clone with and without inhibition by Gly-Pro and compared with the CHO-K1 parental clone.
For each sample, 5 × 10^5 cells were suspended in 1.5 mL low-binding reaction tubes and washed once in MES buffer. Subsequently, cells were incubated in 100 µL of the respective cyclic peptide solution in MES with or without 20 mM Gly-Pro at 37 °C for 10 min on a rotary shaker (450 rpm). Cells were then washed twice with 0.4 mL ice-cold MES buffer before further proceeding as described in Section 2.8. Each concentration was tested in triplicate, and the experiment was conducted at least thrice.
Cell lysis was performed with 50 µL of 10% aqueous ammonia, and the lysates acidified with 50 µL of 20% aqueous FA to ensure stability of the peptide therapeutics during sample processing. Sample preparation and UPLC–MS/MS measurements were performed as previously described for plasma.
as §1

[3] = oral, Beagle dogs; ref Sauter et al., unpublished data; cited from earlier work
[4] = CHO-hPepT1-M5 cells, 20 µM Gly-Sar, inhibitor 0.1-5000 µM, MES buffer pH 6.0, 10 min, 37 °C, UPLC-MS/MS, mean ± S.E.M. of three independent experiments, each concentration in sextuplets, read-out: IC50 for inhibition of the Gly-Sar uptake

IC50 (hPepT1 (SLC15A1) [1]; [4]) [µM]	Inhibition of the Gly-Sar uptake, shape of inhibition curve (hPepT1 (SLC15A1) [1]; CHO-hPepT1-200 cells, 20 µM Gly-Sar, losartan 0.1-5000 µM, MES buffer pH 6.0, 10 min, 37 °C, compared with CHO-hPepT1-M5)	SMILES	IC50 (hPepT1 (SLC15A1) [1]) [µM]	hPepT1 substrate characteristics (conclusion) (hPepT1 (SLC15A1) [2])	Bioavailability [3] [%]	Difference in uptake between cells without (CHO-K1) and with hPepT1 overexpression (CHO-hPepT1-M5) (hPepT1 (SLC15A1) [2]; 5 x 10^5 cells in suspension, MES buffer pH 6, 10 min, 37 °C, intracellular quantification by UPLC-MS/MS, three experiments in triplicate, two-way ANOVA with Bonferroni post hoc test)	Influence of the PepT1 inhibitor Gly-Pro on the uptake (hPepT1 (SLC15A1) [2]; with or without 20 mM Gly-Pro, CHO-hPepT1-M5 and CHO-K1 cells, MES buffer pH 6, 10 min, 37 °C, UPLC-MS/MS, three experiments in triplicate)
196 ± 41	–	NCC(=O)N1CCC[C@H]1C(=O)O [Gly-Pro] (H-Gly-Pro-OH)	–	–	–	–	–
37 ± 4.8	the inhibition curve was much flatter	CCCCc1nc(Cl)c(CO)n1Cc1ccc(-c2ccccc2-c2nn[nH]n2)cc1 [losartan]	–	–	–	–	–
–	–	C[C@@H](O)[C@@H]1NC(=O)[C@H](CCCCN)NC(=O)[C@@H](Cc2c[nH]c3ccccc23)NC(=O)[C@H](Cc2ccccc2)NC(=O)[C@@H](NC(=O)[C@H](N)Cc2ccccc2)CSSC[C@@H](C(=O)N[C@H](CO)[C@@H](C)O)NC1=O [octreotide]	4200 ± 1600	not transported by hPepT1	> 1	–	–
–	–	NCCCC[C@@H]1NC(=O)[C@@H](Cc2c[nH]c3ccccc23)NC(=O)[C@H](c2ccccc2)NC(=O)[C@@H]2C[C@@H](OC(=O)NCCN)CN2C(=O)[C@H](Cc2ccccc2)NC(=O)[C@H](Cc2ccc(OCc3ccccc3)cc2)NC1=O [pasireotide] (cyclo([Hyp]([CO-Ethylenediamine])[Phg][dW]KY(Bn)F))	530 ± 110	not transported by hPepT1	> 1	no obvious difference in the uptake	no significant influence on the uptake
